Results published in US20090036355A1, “Antisense Modulation of PTP1B Expression” (priority 2004, published 2009).
Like-named read-outs stand apart in the source and are kept apart here.

How the values were obtained:
[1] = Combination with metformin in ZDF rats: hypoglycemia, AST/ALT, lipids, plasma lactate; format: in vivo, rat; conditions: after 4 weeks of treatment, metformin 100, 300 or 500 mg/kg per day, ISIS 113715 12.5 mg/kg twice a week
Protocol: 500 mg/kg is the maximally effective dose that can be tolerated by these rats.
There was no significant change in AST/ALT, plasma triglyceride or plasma cholesterol levels in any animal group. Because of the risk of lactic acidosis associated with metformin treatment, plasma lactate levels were measured.

ZDF rats [2] = assay: ZDF rats: comparison to rosiglitazone and metformin (glucose, HbA1c, meal tolerance, body weight); format: in vivo, rat
Protocol: A saline treated group of lean rats was also included in the study. Treatment with all drugs was initiated before the rats became frankly diabetic, which occurs at about 8 weeks of age. Plasma glucose levels were measured 3 and 5 weeks after treatment initiation. Body weight was measured once every week; in addition, HbA, levels were measured at the end of the study by HPLC. A meal tolerance test was also performed after 4 weeks of treatment.
At the end of 5 weeks, some rats were sacrificed and the liver and epididymal fat pads were removed. The rest of the animals (n=4/group) were examined for changes in plasma glucose levels after cessation of treatment. Glucose measurements during the recovery phase were made 10 days and 5 weeks after stopping treatment. Tissue extracts were subjected to Western blot analysis to measure changes in PTP1B protein levels.

ZDF rats [3] = assay: Combination with metformin in ZDF rats: plasma glucose; format: in vivo, rat; conditions: 4 weeks, metformin 100, 300 or 500 mg/kg per day, ISIS 113715 12.5 mg/kg twice a week
Protocol: 500 mg/kg is the maximally effective dose that can be tolerated by these rats. Plasma glucose was measured at week 0 (before treatment) and after weeks 1, 2 and 4 of treatment.

PTP1B protein = PTP1B protein levels in ZDF rats (Western blot); format: in vivo, rat; conditions: compared to saline-treated animals
Protocol: (§1) ZDF/GmiCrl-fa/fa (ZDF) male rats were purchased from Charles River Laboratories (Wilmington, Mass., USA). Six week old ZDF male rats were injected intraperitoneally with oligonucleotides at a dose of 25 mg/kg two times per week for four weeks. […] Saline-injected animals also serve as controls.
PTP1B protein levels were measured by Western blot analysis.

ZDF rats [4] = assay: Fed plasma glucose in Zucker diabetic fatty (ZDF) rats; format: in vivo, rat
Text: The leptin receptor deficient Zucker diabetic fatty (ZDF) rat is another useful model for the investigation of type 2 diabetes. Diabetes develops spontaneously in these male rats at ages 8-10 weeks, and is associated with hyperphagia, polyuria, polydipsia, and impaired weight gain, symptoms which parallel the clinical symptoms of diabetes (Phillips M S, et al., 1996, Nat Genet. 13, 18-19).
as §1

[5] = test system: T-cell phosphatase (TC-PTPase, PTPN2); assay: TC-PTPase protein in HEPG2 cells (Western blot); format: cell-based, human; conditions: 150 nM
Protocol: (§2) There is a high degree of homology between PTP1B and T-cell phosphatase (TC-PTPase, PTPN2), particularly in the catalytic domain. This may present problems in design of small molecule drugs specific for PTP1B. […] HEPG2 human hepatocellular liver carcinoma cells (ATCC, Manassas Va.) are routinely maintained in minimum essential medium (Eagle) with 2 mM L-glutamine and Earle's BSS adjusted to contain 1.5 g/L sodium bicarbonate, 0.1 mM non-essential amino acids, and 1.0 mM sodium pyruvate, […]; fetal bovine serum.
(§3) Levels of PTP1B and TC-PTPase protein were measured by Western blot using mouse monoclonal antibodies to PTP1B (AB-1) and TC-PTPase (AB-1) (CalBiochem/Oncogene sciences, EMD Biosciences, Inc., San Diego Calif.), which specifically identified human target proteins and were used at 0.25 ug/ml. Results were expressed as percent of control (no oligo treatment).

PTP1B = PTP1B protein in HEPG2 cells (Western blot); format: cell-based, human; conditions: 150 nM
Protocol: as §2, §3

[6] = rat, in vivo
ZDF rats [7] = assay: Intraperitoneal glucose tolerance test (IPGTT) in ZDF rats; format: in vivo, rat
Protocol: as §1
An intraperitoneal glucose tolerance test (IPGTT) was also performed. Rats received intraperitoneal injections of glucose, and the blood glucose and insulin levels are measured before the glucose challenge and at intervals over 2 hours. The blood glucose levels (in mg/dL) are shown below in Table 1: […]

[8] = AST/ALT and plasma cholesterol in aged ZDF rats; conditions: weeks 1, 2, 3, 4 and 5

CN(C)C(=N)N=C(N)N [Metformin]
plasma lactate levels [1]: dose-dependent increase
Blood glucose (mg/dL) (approx.) (ZDF rats [2]; 31 day washout, saline 320): ~330 mg/dL
Blood glucose (mg/dL) (approx.) (ZDF rats [2]; Week 3 of dosing, saline 320): ~180 mg/dL
body weight (ZDF rats [2]; after treatment): remained unchanged
effect on blood glucose over time (ZDF rats [3]): lost over time

ISIS 141923: CCTTCCCTGAAGGTTCCTCC; SEQ ID NO: 20, six-mismatch control of ISIS 113715, negative oligonucleotide control (chemistry not given here)
PTP1B protein levels decreased by (PTP1B protein): 10%
fed plasma glucose levels (ZDF rats [4]; 25 mg/kg i.p. two times per week, week 0, saline 302±44): approximately 306±59 mg/dL
fed plasma glucose levels (ZDF rats [4]; week 1, saline 400±17): ~391 ± 35 mg/dL
fed plasma glucose levels (ZDF rats [4]; week 2, saline 441±13): ~402 ± 37 mg/dL
fed plasma glucose levels (ZDF rats [4]; week 3, saline 453±26): ~411 ± 27 mg/dL
fed plasma glucose levels (ZDF rats [4]; week 4, saline 425±10): ~392 ± 11 mg/dL
TC-PTPase levels reduced by [5]: reduced neither
PTP1B protein levels reduced by (PTP1B): reduced neither
AST/ALT and plasma cholesterol levels [6]: no significant effects
Blood glucose after IPGTT, Glucose mg/dL ± SEM (ZDF rats [7]; 0 min): 330 ± 39 mg/dL
Insulin excursion after IPGTT, Insulin (ng/ml ± SEM) (ZDF rats [7]; 0 min): 2.2 ± .30 ng/mL
Blood glucose after IPGTT, Glucose mg/dL ± SEM (ZDF rats [7]; 5 min): 543 ± 43 mg/dL
Insulin excursion after IPGTT, Insulin (ng/ml ± SEM) (ZDF rats [7]; 5 min): 2.3 ± .84 ng/mL
Blood glucose after IPGTT, Glucose mg/dL ± SEM (ZDF rats [7]; 15 min): 703 ± 60 mg/dL
Insulin excursion after IPGTT, Insulin (ng/ml ± SEM) (ZDF rats [7]; 15 min): 4.0 ± .22 ng/mL
Blood glucose after IPGTT, Glucose mg/dL ± SEM (ZDF rats [7]; 30 min): 791 ± 52 mg/dL
Insulin excursion after IPGTT, Insulin (ng/ml ± SEM) (ZDF rats [7]; 30 min): 4.2 ± .37 ng/mL
Blood glucose after IPGTT, Glucose mg/dL ± SEM (ZDF rats [7]; 60 min): 705 ± 51 mg/dL
Insulin excursion after IPGTT, Insulin (ng/ml ± SEM) (ZDF rats [7]; 60 min): 2.4 ± .66 ng/mL
Blood glucose after IPGTT, Glucose mg/dL ± SEM (ZDF rats [7]; 120 min): 594 ± 28 mg/dL
Insulin excursion after IPGTT, Insulin (ng/ml ± SEM) (ZDF rats [7]; 120 min): 1.7 ± .60 ng/mL
Insulin AUC after IPGTT (ZDF rats [7]; saline approximately 300): ~320
Glucose excursion (AUC) after IPGTT (ZDF rats [7]; saline approximately 72,000): approximately 80,000

CN(CCOc1ccc(CC2SC(=O)NC2=O)cc1)c1ccccn1 (stereo not drawn) [Rosiglitazone]
Blood glucose (mg/dL) (approx.) (ZDF rats [2]; 10 day washout, saline 310): ~260 mg/dL
Blood glucose (mg/dL) (approx.) (ZDF rats [2]; 31 day washout, saline 320): ~270 mg/dL
Blood glucose (mg/dL) (approx.) (ZDF rats [2]; Pre-treatment, ISIS 113715 50 mg/kg/week IP, rosiglitazone 10 mg/kg/day, metformin 800 mg/kg/day orally, saline 140): ~140 mg/dL
Blood glucose (mg/dL) (approx.) (ZDF rats [2]; Week 3 of dosing, saline 320): ~110 mg/dL
AST/ALT and plasma cholesterol levels [8]: no significant effects
